Measurements as given in publication PMC7143969, “Simultaneous Determination of α-Glucosidase Inhibitory Triterpenoids in Psidium guajava Using HPLC–DAD–ELSD and Pressurized Liquid Extraction” (Molecules, 2020).
Values after ≈ are worked out from the molar mass of the structure shown.

Molecular target: α-glucosidase (Saccharomyces cerevisiae, UniProt P53341)
Assay: Inhibition assay of α-glucosidase activity (p-nitrophenyl α-D-glucopyranoside substrate, absorbance at 405 nm)
Assay type: biochemical
Details: Mean ± SE, phosphate buffer pH 6.8, 37 °C, 30 min, NI: No Inhibition
Procedure: Methanol and formic acid (HPLC grade) were purchased from Merck (Darmstadt, Germany). The ultra-pure water was purified using a Millipore Milli Q-Plus system (Millipore, Bedford, MA, USA). The α-glucosidase and p-nitrophenyl α-D-glucopyranoside were purchased from Sigma (St. Louis, USA). The enzymatic reaction results were detected on a SpectraMax M5 (Molecular Devices, San Jose, CA, USA).
The inhibition assay of α-glucosidase was measured by the method as described previously. Briefly, a total volume of 150 µL solution consisting of 100 µL phosphate buffer (0.1 M, pH 6.8), 20 µL α-glucosidase (2.4 unit/mg), 20 µL p-nitrophenyl α-D-glucopyranoside and 10 µL different concentration of test sample (12.5–500 µg/mL), was incubated for 30 min under the temperature of 37 °C, then the reaction was stopped by adding 80 µL 0.1 mM Na2CO3. The results were detected under the wavelength of 405 nm on a SpectraMax M5 (Molecular Devices, San Jose, CA, USA). The controlled sample used solvent instead of triterpenoids and the blank sample used buffer instead of α-glucosidase, respectively. The inhibition activity α-glucosidase was calculated by the following equation:Inhibition (%) = [1 − (As − Asb)/(Ac − Acb)] × 100%(2)
Herein, As, Asb, Ac and Acb are absorption of the test sample, sample blank, control and control blank, respectively. Their half maximal inhibitory concentration (IC50) were calculated and compared.

Sequence of α-glucosidase (P53341 whole entry): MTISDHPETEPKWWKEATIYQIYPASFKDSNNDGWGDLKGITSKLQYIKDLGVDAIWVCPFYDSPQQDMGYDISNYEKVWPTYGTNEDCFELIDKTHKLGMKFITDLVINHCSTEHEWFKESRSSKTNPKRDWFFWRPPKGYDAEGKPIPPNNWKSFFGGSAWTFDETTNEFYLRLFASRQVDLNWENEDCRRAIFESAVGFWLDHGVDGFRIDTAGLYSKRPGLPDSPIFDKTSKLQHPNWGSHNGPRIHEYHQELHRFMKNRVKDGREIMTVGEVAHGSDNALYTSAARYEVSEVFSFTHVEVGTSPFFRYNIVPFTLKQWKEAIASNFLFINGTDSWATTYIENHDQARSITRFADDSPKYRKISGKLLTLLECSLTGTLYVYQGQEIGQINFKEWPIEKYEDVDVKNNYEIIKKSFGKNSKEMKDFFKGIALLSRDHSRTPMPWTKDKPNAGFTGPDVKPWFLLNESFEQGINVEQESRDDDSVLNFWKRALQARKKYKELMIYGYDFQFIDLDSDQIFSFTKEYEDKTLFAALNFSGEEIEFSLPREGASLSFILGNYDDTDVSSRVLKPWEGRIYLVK

Structure (SMILES)	IC50 (n = 3) against α-Glucosidase
C[C@H]1[C@H](C)CC[C@]2(C(=O)O)CC[C@]3(C)C(=CC[C@@H]4[C@@]5(C)C[C@@H](O)[C@H](OC(=O)/C=C\c6ccc(O)cc6)C(C)(C)[C@@H]5CC[C@]43C)[C@H]12 (relative stereo) [Compound 5, 3β-O-cis-p-coumaroyl-2α-hydroxy-urs-12-en-28-oic acid]	1.54 ± 0.15 µg/mL (≈ 2.49 µM)
C[C@H]1[C@H](C)CC[C@]2(C(=O)O)CC[C@]3(C)C(=CCC4[C@@]5(C)C[C@@H](O)[C@H](OC(=O)/C=C/c6ccc(O)cc6)C(C)(C)C5CC[C@]43C)[C@H]12 (relative stereo) [Compound 7, 3β-O-trans-p-coumaroyl-2α-hydroxy-urs-12-en-28-oic acid]	2.12 ± 0.15 µg/mL (≈ 3.43 µM)
C[C@H]1[C@H](C)CC[C@]2(C(=O)O)CC[C@]3(C)C(=CC[C@@H]4[C@@]5(C)C[C@@H](O)[C@H](O)[C@@](C)(CO)[C@@H]5CC[C@]43C)[C@H]12 [Compound 1, asiatic acid]	no inhibition activity
CC1(C)CCC2(C(=O)O)CCC3(C)C(=CCC4C5(C)CC(O)C(OC(=O)C=Cc6ccc(O)cc6)C(C)(C)C5CCC43C)C2C1 (stereo not drawn) [Compound 4, 3β-O-cis-p-coumaroyl-2α-hydroxy-olean-12-en-28-oic acid]	2.25 ± 0.28 µg/mL (≈ 3.64 µM)
CC1(C)CCC2(C(=O)O)CCC3(C)C(=CCC4C5(C)CC(O)C(OC(=O)C=Cc6ccc(O)cc6)C(C)(C)C5CCC43C)C2C1 (stereo not drawn) [Compound 6, 3β-O-trans-p-coumaroyl-2α-hydroxy-olean-12-en-28-oic acid]	1.93 ± 0.14 µg/mL (≈ 3.12 µM)
